Reference: patent US8673552B2, “Druggable regions in the dengue virus envelope glycoprotein and methods of using the same” (Children's Medical Center Corporation, priority 2003, dated 2014)
Ends that are not written are not given here.

Molecular target: T1, trimeric, post-fusion form of sE (dengue envelope protein E, residues 1-395) (Dengue virus type 2, UniProt P12823)
T1 construct: post-fusion form of sE, the fragment of E spanning residues 1-395; purchased Hawaii Biotech (Hawaii Biotechnology Group, Inc., Aiea, Hi.); host or cells: Drosophila melanogaster Schneider 2 cells (pMtt vector, prM-E preprotein processed during secretion)
Test: fluorescence depolarization binding of stem peptides to sE trimer
Text: FIG. 10 depicts fluorescence depolarization binding data for a peptide corresponding to residues 396-429 (in the “stem” region) of dengue envelope protein (E). FIG. 10A depicts a Kd analysis of the peptide's binding affinity to the trimeric, post-fusion form of E. FIG. 10B depicts a competitive binding analysis with the fluorescent and unlabeled peptide.
FIG. 11 depicts a fluorescence depolarization Kd analysis to measure the affinity between a peptide corresponding to residues 413-447 (in the “stem” region) of dengue envelope protein (E). and the trimeric, post-fusion form of E.
A peptide corresponding to residues 396-429 (in the “stem” region) of dengue envelope protein (E) binds with fairly high affinity and specificity to the trimeric, post-fusion form of sE, the fragment of E spanning residues 1-395, which we crystallized first in the pre-fusion form and then in the post-fusion form. We determined the dissociation constant (Kd) of the peptide from sE from fluorescence depolarization measurements using a fluorescently labeled version of the peptide. The Kd is around 6 μM. This indicates a fairly strong binding. FIG. 10 depicts the fluorescence depolarization results. The Kd is approximately equal to the concentration of sE at which the depolarization (in mP) reaches its half-maximal value (see FIG. 10A). […]

Row | Molecule | competitive binding of fluorescent and unlabeled peptide (fluorescence depolarization, FIG. 10B, shows that binding is specific to one site of sE) | Kd
1 | CC[C@H](C)[C@H](NC(=O)[C@H](C)NC(=O)[C@H](CCSC)NC(=O)[C@H](CCCNC(=N)N)NC(=O)[C@H](CCCCN)NC(=O)[C@H](C)NC(=O)CNC(=O)[C@H](CCCNC(=N)N)NC(=O)[C@H](CCSC)NC(=O)[C@@H](NC(=O)[C@@H](NC(=O)[C@H](CCC(=O)O)NC(=O)[C@H](Cc1ccccc1)NC(=O)[C@H](CCSC)NC(=O)[C@H](CCC(N)=O)NC(=O)CNC(=O)[C@@H](NC(=O)[C@H](CO)NC(=O)[C@@H](N)CO)[C@@H](C)CC)[C@@H](C)O)[C@@H](C)O)C(=O)N[C@@H](CC(C)C)C(=O)NCC(=O)N[C@@H](CC(=O)O)C(=O)N[C@H](C(=O)N[C@@H](C)C(=O)N[C@@H](Cc1c[nH]c2ccccc12)C(=O)N[C@@H](CC(=O)O)C(=O)N[C@@H](Cc1ccccc1)C(=O)NCC(=O)N[C@@H](CO)C(=O)N[C@@H](CC(C)C)C(=O)NCC(=O)NCC(=O)N[C@H](C(=O)N[C@@H](Cc1ccccc1)C(=O)O)C(C)C)[C@@H](C)O [396-429] | can be competed off of sE with unlabeled peptide | –
2 | AILGDTAWDFGSLGGVFTSIGKALHQVFGAIYGAA [413-447] | – | ~4 µM
